Literature values as cited in patent publication US20060136023A1 (priority 2004, published 2006).

Tests used:
[1] = tested on: opiate receptor
[2] = tested on: shivering threshold; settings: in vivo
[3] = tested on: clots; settings: clots treated with plasminogen (2 mg) and SK (100 IU) in 15 ml PBS; clot temperature raised from 24° C. to 37° C.
[4] = target: T1, Plasminogen (Homo sapiens, UniProt P00747)
[5] = tested on: clots; settings: tPA 0.3, 1.0 and 3.0 μg/ml; incubated from 24° C. to 40° C.
[6] = target: T1, Plasminogen; settings: clots treated with UK at 4° C.; heating to 28° C.

T1 sequence (P00747 20-810 limits assumed, species assumed): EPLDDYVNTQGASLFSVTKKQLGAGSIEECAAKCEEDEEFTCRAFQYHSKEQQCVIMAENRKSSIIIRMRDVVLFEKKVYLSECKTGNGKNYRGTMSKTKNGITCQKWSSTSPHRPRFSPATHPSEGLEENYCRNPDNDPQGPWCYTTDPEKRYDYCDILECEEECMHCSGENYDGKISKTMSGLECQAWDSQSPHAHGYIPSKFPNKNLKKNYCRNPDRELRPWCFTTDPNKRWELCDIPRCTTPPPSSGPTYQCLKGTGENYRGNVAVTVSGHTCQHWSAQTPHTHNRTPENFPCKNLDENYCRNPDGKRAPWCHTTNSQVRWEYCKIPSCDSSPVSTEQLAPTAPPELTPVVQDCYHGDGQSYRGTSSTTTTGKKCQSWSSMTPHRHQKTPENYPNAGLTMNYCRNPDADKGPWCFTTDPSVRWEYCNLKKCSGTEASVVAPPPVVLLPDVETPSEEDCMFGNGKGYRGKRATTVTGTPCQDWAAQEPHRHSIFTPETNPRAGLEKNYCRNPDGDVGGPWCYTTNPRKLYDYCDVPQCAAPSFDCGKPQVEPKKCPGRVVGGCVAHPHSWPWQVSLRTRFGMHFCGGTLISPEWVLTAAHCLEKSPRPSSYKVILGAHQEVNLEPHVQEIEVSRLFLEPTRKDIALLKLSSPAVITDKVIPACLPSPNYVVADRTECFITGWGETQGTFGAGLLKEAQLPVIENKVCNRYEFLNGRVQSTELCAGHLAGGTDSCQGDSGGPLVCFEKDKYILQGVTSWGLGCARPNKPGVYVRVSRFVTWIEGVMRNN

In the case of CCC(=O)OC1(c2ccccc2)CCN(C)CC1C (racemic) [alpha prodine, Alpha prodine], the “affinity for the opiate receptor, one enantiomer versus the other” value [1] is given as “(+) isomer has much greater affinity”.

For CN1CCOC(c2ccccc2)c2ccccc2C1 (racemic) [nefopam], the antishivering activity [2] is given as “prevent post-operative shivering”.

For CCOC(=O)C1(c2ccccc2)CCN(C)CC1 [Meperidine], the “decrease of shivering threshold relative to vasoconstriction threshold” value [2] is listed as “twice as much” and the “effect on the gain and maximum intensity of shivering” value [2] is listed as “does not have much effect”.

For CCC(=O)O[C@@]1(c2ccccc2)CCN(C)C[C@@H]1C [beta prodine], the “affinity for the opiate receptor, one enantiomer versus the other” value [1] is given as “(+) isomer has much greater affinity”.

For CN1CC[C@]23c4c5ccc(O)c4O[C@H]2[C@@H](O)C=C[C@H]3[C@H]1C5 [morphine], the antishivering activity [2] is listed as “less or no antishivering activity”.

For Oc1ccc2c3c1O[C@H]1[C@@H](O)CC[C@@]4(O)[C@@H](C2)N(CC2CCC2)CC[C@]314 [nalbuphine], the antishivering activity [2] is given as “less or no antishivering activity”.

For CC(C)=CCN1CCC2(C)c3cc(O)ccc3CC1C2C (stereo not shown) [pentazocine], the antishivering activity [2] is given as “less or no antishivering activity”.

In the case of streptokinase [SK], the fibrinolytic activity [3] is given as “heating enhanced the fibrinolytic activity”.

In the case of tissue plasminogen activator [tPA], the fibrinolytic activity ([4]; 2.5 μg/ml tPA, cooling from normal body temperature to a hypothermic temperature) is given as “increased fibrinolytic activity”, the Plasminogen activation ([4]; clots treated with 2.5 μg/ml tPA, incubated at 37, 25, 10, 0 and −8° C.) is given as “relatively high at low temperatures” and the “amount of clot lysis” value [5] is given as “correlated with temperature at all concentrations”.

In the case of urokinase [UK], the “conversion of plasminogen to plasmin (fibrinolytic activity)” value [6] is listed as “complete conversion of all plasminogen to plasmin”.
